Like-named read-outs stand apart in the source and are kept apart here.
Legend:
[1] = system: human endometrial adenocarcinoma Ishikawa cells; test: Estrogenic and anti-estrogenic activities in vitro: induction of alkaline phosphatase (APase) activity; assay type: cell-based; conditions: for estrogenic effect in alkaline phosphatase activity in the Ishikawa cell model: in words; for EC50: compound alone, four days, ND = not detected, read-out: Estrogenic activity EC50 (nM) ± S.E.M
Procedure: The estrogenic and anti-estrogenic potentials of new compounds were evaluated using the induction of alkaline phosphatase (APase) activity, an estrogen specific response in human endometrial adenocarcinoma Ishikawa cells (Botella J., J Steroid Biochem Molec Biol, 1995, 55: 77-84; Littlefield et al., Endocrinology, 1990, 127: 2757-2762).
Ishikawa cells were routinely grown as monolayers in Dulbecco's Modified Eagle's medium (DMEM) containing 4 mM Glutamax I and supplemented with 10% of decomplemented fetal calf serum (dFCS) and antibiotics. They were maintained in a humidified atmosphere of 5% CO2 and 95% air, at 37±0.1° C. Stocks were performed once a week to maintain continuous exponential growth.
For studies, Ishikawa cells were plated into 96-well microplates. The next day, the medium was changed to a phenol red-free DMEM containing 5% dFCS stripped of endogenous estrogens by dextran coated charcoal treatment.
At the end of the incubation period, APase activity was assayed by a method involving the hydrolysis of p-nitrophenyl phosphate to p-nitrophenol at pH 9.8 and spectrophotometric determination of the product at 405 nm.
In brief, the microplates were first rinsed twice with cold phosphate buffered solution and then placed at −80° C. for at least 15 minutes. After thawing at room temperature for 5-10 minutes, the plates were put on ice and 50 μl ice-cold solution containing 5 mM p-nitrophenyl phosphate was added to each well. The plates were warmed to room temperature to allow for the development of the enzymatic reaction (t0). After a 15 to 60 minute incubation period, the intensity of the yellow color generated by the production of p-nitrophenol was measured into each well at 405 nm using a microplate reader (Wallac, model 1420 Victor^2). […] Sigmoidal dose-response curves were plotted and EC50 (estrogenic effect) and IC50 (anti-estrogenic effect) values were calculated for each compound.

[2] = system: human breast cancer cell line MCF-7; test: Proliferative activity in vitro (ATP luminescence, 6 days); assay type: cell-based; conditions: for activity at 1 µM: read-out: Effect at 10^−6 M (% of control); for activity at 0.01 µM: read-out: Effect at 10^−8 M (% of control); for EC50: MCF-7, six days, read-out: Cell proliferation EC50 (nM) ± S.E.M
Procedure: The proliferative effect of the compounds of the invention was evaluated on human breast cancer cell line MCF-7 by measuring the number of viable cells after 6 days of treatment.
MCF-7 cells were routinely cultured as monolayers in Dulbecco's modified Eagle's medium (DMEM) containing 4 mM Glutamax and 4.5 g/l glucose and supplemented with 5% (v/v) decomplemented fetal calf serum (dFCS) and antibiotics.
Cells were plated at 2.10^6 cells/75 cm^2 flasks and incubated at 37° C. in a humidified atmosphere containing 5% CO2. They were passaged once weekly to maintain continuous exponential growth. Forty eight hours before the start of an experiment, near-confluent cells were changed to a phenol red free DMEM containing 5% steroid-stripped dFCS by dextran coated charcoal treatment (DCC-DMEM). On the day of the experiment, cells were harvested by brief exposure to trypsin and plated in DCC-DMEM in 96-well microplates at a density of 4.10^3 cells/well. The next day, the medium was renewed and test compounds, diluted appropriately in estrogen-free DMEM, were added and incubated for six days. […] At the end of the incubation period, cell proliferation was evaluated by quantitation of the cellular ATP content which signals the presence of metabolically active cells.
The assay, based on the ATP-dependent luciferase reaction, enables generation of a luminescent signal proportional to the amount of ATP present. As there is a linear relationship between the amount of ATP and the number of viable cells present in culture, the luminescent signal allowed to precisely evaluate cell proliferation (Crouch, S. P. M. et al. J. Immunol. Meth., 1993, 160, 81; Kangas, L. et al. Med. Biol. 1984, 62, 338; Petty, R. D. et al. J. Biolum. Chemilum. 1995, 10, 29).
In brief, the microplates were inverted to discard the culture medium and 100 μl of fresh medium was added into each well. The microplates were equilibrated at room temperature for approximately 30 minutes. 100 μl of luciferase reagent was added into each well and contents were mixed for 2 minutes to induce cell lysis. The plates were incubated at room temperature for 10 minutes to stabilize luminescence signal.
Luminescence was recorded using a microplate reader (Wallac, model 1420 Victor^2) and results were expressed as percentage of the control luminescence. Sigmoidal dose-response curves were plotted and EC50 values were calculated for each compound in order to evaluate their proliferative potency.

Prepubescent female rats = test: Estrogenic / uterotrophic activity in vivo (uterus wet weight); parameters: species or system rat; conditions: Table 4, orally 3 mg/rat/day for 3 days; for change in vivo at 3 mg: Rattus norvegicus, po, 72 h, read-out: % stimulation vs vehicle (uterus weight)
Procedure: Prepubescent female rats were orally treated at 3 mg/rat/day for 3 days. On the day following the last treatment, uteri were removed and wet weights were recorded.
The results are expressed as % of stimulation of uterus weight in comparison with vehicles. […]
Prepubescent female rats were orally treated with 0.3; 1; 3 or 10 mg/rat/day for 3 days. On the day following the last treatment, uteri were removed and wet weights were recorded.

[3] = molecular target: T1, purified full-length recombinant human ERα (Homo sapiens, UniProt P03372); test: Estrogen receptor α competitive radiometric binding assay ([3H]-E2); conditions: for RBA (%) Mean ± S.E.M, ER α: ratio of IC50s of E2 and competitor, E2 set at 100%
T1 sequence (P03372 1-595): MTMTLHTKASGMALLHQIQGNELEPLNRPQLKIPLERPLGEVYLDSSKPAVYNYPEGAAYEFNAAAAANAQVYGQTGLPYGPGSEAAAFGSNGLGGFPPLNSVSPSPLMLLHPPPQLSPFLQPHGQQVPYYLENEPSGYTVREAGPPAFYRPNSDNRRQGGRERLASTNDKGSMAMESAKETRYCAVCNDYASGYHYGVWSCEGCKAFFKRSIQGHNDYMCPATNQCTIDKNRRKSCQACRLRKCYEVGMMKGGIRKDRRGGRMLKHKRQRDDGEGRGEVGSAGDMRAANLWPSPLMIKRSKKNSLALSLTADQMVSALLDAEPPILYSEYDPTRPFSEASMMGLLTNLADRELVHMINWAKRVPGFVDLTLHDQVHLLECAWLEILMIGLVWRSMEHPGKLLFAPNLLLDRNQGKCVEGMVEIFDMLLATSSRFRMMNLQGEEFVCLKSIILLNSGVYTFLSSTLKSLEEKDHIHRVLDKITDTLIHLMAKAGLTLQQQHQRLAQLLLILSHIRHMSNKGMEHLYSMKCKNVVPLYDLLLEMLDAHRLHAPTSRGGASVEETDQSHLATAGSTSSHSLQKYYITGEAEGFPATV
Procedure: (§1) Relative binding affinities (RBA) were determined by competitive radiometric binding assays, using purified full-length recombinant human ERα and ERβ (PanVera, Madison, Wis.). […] After shaking for a few seconds and centrifugation at 1500 g and 4° C. for 10 minutes, 150 μl/well of Optiphase ‘Super Mix’ scintillation liquid was mixed with 50 μl of supernatant of each sample and the radioactivity was measured in a MicroBeta counter (Wallac, Turku, Finland). Data were evaluated by a sigmoidal dose-response curve (Prism, GraphPad Software Inc.) to estimate the concentration of competitor at half-maximal specific binding (IC50). […] The selectivity for ERα and ERβ was obtained from the ratio R of the IC50 for ERα to the IC50 for ERβ for each test compound.

[4] = molecular target: purified full-length recombinant human ERβ (Homo sapiens, UniProt Q92731); test: Estrogen receptor β competitive radiometric binding assay ([3H]-E2); conditions: for selectivity for the human recombinant estrogen receptor β: in words; for RBA (%) Mean ± S.E.M, ER β: ratio of IC50s of E2 and competitor, E2 set at 100%; for R (IC50s) αβ: ratio of the IC50 for ERα to the IC50 for ERβ
purified full-length recombinant human ERβ, sequence (Q92731 whole entry): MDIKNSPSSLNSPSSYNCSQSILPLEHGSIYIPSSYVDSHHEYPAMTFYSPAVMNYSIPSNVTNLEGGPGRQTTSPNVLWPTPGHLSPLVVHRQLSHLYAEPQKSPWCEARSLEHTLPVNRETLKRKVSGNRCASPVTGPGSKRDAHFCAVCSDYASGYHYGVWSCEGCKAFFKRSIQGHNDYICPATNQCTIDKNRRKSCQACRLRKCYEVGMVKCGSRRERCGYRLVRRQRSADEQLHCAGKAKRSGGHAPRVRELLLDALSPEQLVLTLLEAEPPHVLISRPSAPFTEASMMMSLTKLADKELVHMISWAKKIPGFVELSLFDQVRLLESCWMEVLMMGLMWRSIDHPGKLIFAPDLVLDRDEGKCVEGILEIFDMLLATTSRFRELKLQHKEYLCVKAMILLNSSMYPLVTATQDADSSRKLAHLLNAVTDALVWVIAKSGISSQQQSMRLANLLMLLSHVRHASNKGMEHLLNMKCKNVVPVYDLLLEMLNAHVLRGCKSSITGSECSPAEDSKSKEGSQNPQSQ
Procedure: as §1

[5] = Homo sapiens, MCF7, 144 h, MCF-7, 10^−6 M, six days
[6] = Homo sapiens, MCF7, 144 h, MCF-7, 10^−8 M, six days

| Compound | EC50 ([2]; Homo sapiens, MCF7, 144 h) | melting point | IC50 [3] | RBA (%) Mean ± S.E.M, ER α [3] | IC50 [4] | selectivity for the human recombinant estrogen receptor β [4] | RBA (%) Mean ± S.E.M, ER β [4] | R (IC50s) αβ [4] | EC50 ([1]; Homo sapiens, Ishikawa, 96 h) | EC50 [1] | EC50 [2] | IC50 ([3]; read-out: IC50 (nM) Mean ± S.E.M, ER α, 2 nM [3H]-E2, 4° C., 18-20 hours) | IC50 ([4]; read-out: IC50 (nM) Mean ± S.E.M, ER β, 2 nM [3H]-E2, 4° C., 18-20 hours) | estrogenic effect in alkaline phosphatase activity in the Ishikawa cell model [1] | activity at 1 µM [2, 5] | activity at 0.01 µM [2, 6] | change in vivo at 3 mg (Prepubescent female rats) | Effect at 10^−6 M (% of control) ([2]; MCF-7, 10^−6 M, six days) | Effect at 10^−8 M (% of control) ([2]; MCF-7, 10^−8 M, six days) | % stimulation vs vehicle (uterus weight) (Prepubescent female rats) |
| --- | --- | --- | --- | --- | --- | --- | --- | --- | --- | --- | --- | --- | --- | --- | --- | --- | --- | --- | --- | --- |
| N#CC(Cc1ccc(O)c(O)c1)c1noc2cc(O)ccc12 (stereo not drawn) [Ex 86, 2-(6-hydroxy-1,2-benzisoxazol-3-yl)-3-(3,4-dihydroxyphenyl) propanenitrile] | 466 ± 34 nM | 154 °C | 1890 ± 365 nM | 0.2 ± 0.03% | 135 ± 31 nM | marked selectivity | 2.4 ± 0.4% | 14.1 | – | – | – | – | – | weak estrogenic effect | 139% | 85.6% | 25% | – | – | – |
| N#CC(Cc1ccc(F)cc1)c1noc2cc(O)ccc12 (stereo not drawn) [Ex 84, 2-(6-hydroxy-1,2-benzisoxazol-3-yl)-3-(4-fluorophenyl) propanenitrile] | 77.9 ± 4.1 nM | 152 °C | 2300 ± 446 nM | 0.1 ± 0.03% | 123 ± 25.9 nM | marked selectivity | 2.5 ± 0.4% | 18.7 | 322 ± 20 nM | – | – | – | – | weak estrogenic effect | 286% | 97% | 24% | – | – | – |
| Cl.Oc1ccc2c(C34CC5CC(CC(C5)C3)C4)n[nH]c2c1 [Ex 31, 3-(1-adamantyl)-1H-indazol-6-ol, hydrochloride] | 3.7 ± 0.7 nM | – | 119 ± 45.2 nM | 3.1 ± 0.8% | 36.2 ± 18.7 nM | marked selectivity | 17.7 ± 5.1% | 3.3 | 30.8 ± 0.5 nM | – | – | – | – | weak estrogenic effect | 146% | 139% | 468% | – | – | – |
| Oc1ccc2c(C3CCCCC3)nsc2c1 [Ex 93, 3-cyclohexyl-1,2-benzisothiazol-6-ol] | 16.1 ± 2.6 nM | 190 °C | 88.6 ± 11.7 nM | 1.3 ± 0.2% | 37.8 ± 5.4 nM | marked selectivity | 5.1 ± 0.8% | 2.3 | 124 ± 8.9 nM | – | – | – | – | weak estrogenic effect | 156% | 116% | 88% | – | – | – |
| NS(=O)(=O)n1nc(C2CCCCC2)c2ccc(O)cc21 [Ex 40, 3-cyclohexyl-6-hydroxy-1H-indazole-1-sulfonamide] | 11.5 ± 2.8 nM | 162 °C | 1480 ± 1180 nM | 0.1 ± 0.02% | 188 ± 34 nM | – | 1.0 ± 0.2% | 7.9 | 132 ± 4.7 nM | – | – | – | – | – | 152% | 107% | 41% | – | – | – |
| Oc1ccc2c(C3CCCCCC3)noc2c1 [Ex 65, 3-cycloheptyl-1,2-benzisoxazol-6-ol] | 27.6 ± 2 nM | 156 °C | 75.3 ± 5.4 nM | 2.5 ± 0.6% | 20.2 ± 4.2 nM | – | 13.2 ± 3.1% | 3.7 | 51.7 ± 6.2 nM | – | – | – | – | – | 260% | 123% | 84% | – | – | – |

Continued, in another order:

| EC50 ([2]; Homo sapiens, MCF7, 144 h) | melting point | IC50 [3] | RBA (%) Mean ± S.E.M, ER α [3] | IC50 [4] | selectivity for the human recombinant estrogen receptor β [4] | RBA (%) Mean ± S.E.M, ER β [4] | R (IC50s) αβ [4] | EC50 ([1]; Homo sapiens, Ishikawa, 96 h) | EC50 [1] | EC50 [2] | IC50 ([3]; read-out: IC50 (nM) Mean ± S.E.M, ER α, 2 nM [3H]-E2, 4° C., 18-20 hours) | IC50 ([4]; read-out: IC50 (nM) Mean ± S.E.M, ER β, 2 nM [3H]-E2, 4° C., 18-20 hours) | Compound | estrogenic effect in alkaline phosphatase activity in the Ishikawa cell model [1] | activity at 1 µM [2, 5] | activity at 0.01 µM [2, 6] | change in vivo at 3 mg (Prepubescent female rats) | Effect at 10^−6 M (% of control) ([2]; MCF-7, 10^−6 M, six days) | Effect at 10^−8 M (% of control) ([2]; MCF-7, 10^−8 M, six days) | % stimulation vs vehicle (uterus weight) (Prepubescent female rats) |
| --- | --- | --- | --- | --- | --- | --- | --- | --- | --- | --- | --- | --- | --- | --- | --- | --- | --- | --- | --- | --- |
| – | – | – | 0.1 ± 0.02% | – | marked selectivity | 0.9 ± 0.1% | 10.8 | – | 374 ± 43 nM | 58.2 ± 15 nM | 2690 ± 593 nM | 248 ± 48.7 nM | 1-(aminosulfonyl)-3-cyclohexyl-1H-indazol-6-yl-sulfamate [Ex 35] | weak estrogenic effect | – | – | – | 162.6 % of control | 94.4 % of control | 38% |
| 18.5 ± 1.8 nM | 147 °C | 159 ± 23.7 nM | 1.2 ± 0.2% | 10.2 ± 0.9 nM | – | 24.6 ± 4.3% | 15.6 | 136.3 ± 1.2 nM | – | – | – | – | Oc1ccc2c(C3CCCCC3)n[nH]c2c1 [Ex 24, 3-cyclohexyl-1H-indazol-6-ol] | – | 143% | 89.9% | 101% | – | – | – |
| 25.4 ± 4 nM | 181 °C | 260 ± 40.1 nM | 1.1 ± 0.2% | 44.6 ± 7.7 nM | marked selectivity | 9.4 ± 3.1% | 5.8 | 221 ± 14 nM | – | – | – | – | Oc1ccc2c(C3CCCCC3)noc2c1 [Ex 66, 3-cyclohexyl-1,2-benzisoxazol-6-ol] | weak estrogenic effect | 149% | 100% | 31% | – | – | – |

— patent US7977364B2, “Indazoles, benzisoxazoles and benzisothiazoles and their use as estrogenic agents” (Laboratoire Thermamex, priority 2004, dated 2011)
